The source of these data is ChEMBL document CHEMBL1150356, “Design, synthesis and biological evaluation of substituted pyrrolo[2,3-d]pyrimidines as multiple receptor tyrosine kinase inhibitors and antiangiogenic agents” (Bioorg Med Chem, 2008).

Assay [1] deals with Vascular endothelial growth factor receptor 2 (Homo sapiens, UniProt P35968).
Description: Inhibition of VEGFR2 expressed in human tumor cells
Assay [2] deals with Epidermal growth factor receptor (Homo sapiens, UniProt P00533). The assay is described as follows: Inhibition of EGFR expressed in human tumor cells.
Chain of Epidermal growth factor receptor (P00533 whole entry): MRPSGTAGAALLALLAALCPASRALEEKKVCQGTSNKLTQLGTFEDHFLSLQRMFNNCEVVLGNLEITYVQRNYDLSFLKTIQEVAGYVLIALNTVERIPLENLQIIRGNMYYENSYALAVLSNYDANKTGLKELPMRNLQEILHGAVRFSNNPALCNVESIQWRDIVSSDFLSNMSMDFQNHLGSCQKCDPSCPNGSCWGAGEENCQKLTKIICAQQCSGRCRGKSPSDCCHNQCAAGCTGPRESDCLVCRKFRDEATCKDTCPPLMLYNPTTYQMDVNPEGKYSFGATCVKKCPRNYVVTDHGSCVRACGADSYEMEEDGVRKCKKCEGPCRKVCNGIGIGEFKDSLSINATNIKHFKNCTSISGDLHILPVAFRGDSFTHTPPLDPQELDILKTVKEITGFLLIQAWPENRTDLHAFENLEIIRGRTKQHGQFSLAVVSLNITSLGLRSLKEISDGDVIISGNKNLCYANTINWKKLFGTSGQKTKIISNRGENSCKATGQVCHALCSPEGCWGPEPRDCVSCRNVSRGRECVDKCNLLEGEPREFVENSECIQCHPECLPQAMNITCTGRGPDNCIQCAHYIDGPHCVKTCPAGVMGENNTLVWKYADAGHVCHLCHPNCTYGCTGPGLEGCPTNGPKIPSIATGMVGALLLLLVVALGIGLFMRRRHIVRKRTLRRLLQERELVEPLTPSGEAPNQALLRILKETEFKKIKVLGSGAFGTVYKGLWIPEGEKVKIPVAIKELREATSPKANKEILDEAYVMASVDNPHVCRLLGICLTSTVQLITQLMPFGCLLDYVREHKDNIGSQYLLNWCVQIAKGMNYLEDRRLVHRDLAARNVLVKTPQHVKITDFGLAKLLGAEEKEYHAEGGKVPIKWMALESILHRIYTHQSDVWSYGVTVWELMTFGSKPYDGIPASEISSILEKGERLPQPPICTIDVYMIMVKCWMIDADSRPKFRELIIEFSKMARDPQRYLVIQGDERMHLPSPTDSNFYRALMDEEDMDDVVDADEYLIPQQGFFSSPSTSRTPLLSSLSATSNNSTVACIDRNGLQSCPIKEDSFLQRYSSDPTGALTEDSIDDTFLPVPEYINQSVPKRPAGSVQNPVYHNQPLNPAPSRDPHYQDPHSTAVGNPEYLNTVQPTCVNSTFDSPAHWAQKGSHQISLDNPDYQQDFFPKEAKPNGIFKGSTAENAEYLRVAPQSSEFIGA
Assay [3] concerns the target Vascular endothelial growth factor receptor 1 (Homo sapiens, UniProt P17948). The assay is described as follows: Inhibition of VEGFR1 expressed in human tumor cells.
In assay [4] the target is Platelet-derived growth factor receptor beta (Homo sapiens, UniProt P09619). Description: Inhibition of PDGFRbeta expressed in human tumor cells.
Chain of Platelet-derived growth factor receptor beta (P09619 whole entry): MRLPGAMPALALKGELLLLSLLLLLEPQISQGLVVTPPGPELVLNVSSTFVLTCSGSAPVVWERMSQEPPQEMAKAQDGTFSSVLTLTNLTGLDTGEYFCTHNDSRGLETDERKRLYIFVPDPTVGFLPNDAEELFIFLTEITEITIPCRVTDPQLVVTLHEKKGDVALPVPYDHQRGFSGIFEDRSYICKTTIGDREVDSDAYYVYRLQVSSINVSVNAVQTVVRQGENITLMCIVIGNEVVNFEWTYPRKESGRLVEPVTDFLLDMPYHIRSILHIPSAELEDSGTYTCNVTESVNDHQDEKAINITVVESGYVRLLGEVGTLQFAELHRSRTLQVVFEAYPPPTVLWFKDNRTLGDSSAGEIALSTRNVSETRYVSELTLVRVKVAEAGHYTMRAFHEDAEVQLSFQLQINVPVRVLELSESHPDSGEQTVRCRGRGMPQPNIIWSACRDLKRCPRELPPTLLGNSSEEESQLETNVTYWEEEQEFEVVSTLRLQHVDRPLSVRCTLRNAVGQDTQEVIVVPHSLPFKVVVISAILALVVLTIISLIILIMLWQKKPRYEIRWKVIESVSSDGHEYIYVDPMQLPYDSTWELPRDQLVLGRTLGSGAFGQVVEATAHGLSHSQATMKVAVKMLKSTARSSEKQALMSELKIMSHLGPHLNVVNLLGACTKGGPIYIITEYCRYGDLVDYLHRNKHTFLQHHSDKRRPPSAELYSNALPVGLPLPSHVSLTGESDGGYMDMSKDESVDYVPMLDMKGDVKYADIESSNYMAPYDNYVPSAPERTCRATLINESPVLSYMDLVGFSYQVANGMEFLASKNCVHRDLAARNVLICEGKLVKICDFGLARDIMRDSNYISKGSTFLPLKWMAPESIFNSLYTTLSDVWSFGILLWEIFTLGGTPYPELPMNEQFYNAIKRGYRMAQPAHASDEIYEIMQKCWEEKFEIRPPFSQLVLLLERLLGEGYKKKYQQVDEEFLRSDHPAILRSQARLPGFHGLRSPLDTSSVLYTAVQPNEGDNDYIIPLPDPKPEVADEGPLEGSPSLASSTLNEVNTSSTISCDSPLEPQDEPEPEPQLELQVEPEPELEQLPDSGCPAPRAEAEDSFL
Assay [5] deals with A-431. Description: cells. As to conditions: Homo sapiens.
Description: Cytotoxicity against human A431 cells
The species entered for assay [6] is Gallus gallus. The assay is described as follows: Antiangiogenic activity against fertile leghorn chicken eggs by CAM assay. The class given is functional, organism-based.

Chain of Vascular endothelial growth factor receptor 2 (P35968 whole entry): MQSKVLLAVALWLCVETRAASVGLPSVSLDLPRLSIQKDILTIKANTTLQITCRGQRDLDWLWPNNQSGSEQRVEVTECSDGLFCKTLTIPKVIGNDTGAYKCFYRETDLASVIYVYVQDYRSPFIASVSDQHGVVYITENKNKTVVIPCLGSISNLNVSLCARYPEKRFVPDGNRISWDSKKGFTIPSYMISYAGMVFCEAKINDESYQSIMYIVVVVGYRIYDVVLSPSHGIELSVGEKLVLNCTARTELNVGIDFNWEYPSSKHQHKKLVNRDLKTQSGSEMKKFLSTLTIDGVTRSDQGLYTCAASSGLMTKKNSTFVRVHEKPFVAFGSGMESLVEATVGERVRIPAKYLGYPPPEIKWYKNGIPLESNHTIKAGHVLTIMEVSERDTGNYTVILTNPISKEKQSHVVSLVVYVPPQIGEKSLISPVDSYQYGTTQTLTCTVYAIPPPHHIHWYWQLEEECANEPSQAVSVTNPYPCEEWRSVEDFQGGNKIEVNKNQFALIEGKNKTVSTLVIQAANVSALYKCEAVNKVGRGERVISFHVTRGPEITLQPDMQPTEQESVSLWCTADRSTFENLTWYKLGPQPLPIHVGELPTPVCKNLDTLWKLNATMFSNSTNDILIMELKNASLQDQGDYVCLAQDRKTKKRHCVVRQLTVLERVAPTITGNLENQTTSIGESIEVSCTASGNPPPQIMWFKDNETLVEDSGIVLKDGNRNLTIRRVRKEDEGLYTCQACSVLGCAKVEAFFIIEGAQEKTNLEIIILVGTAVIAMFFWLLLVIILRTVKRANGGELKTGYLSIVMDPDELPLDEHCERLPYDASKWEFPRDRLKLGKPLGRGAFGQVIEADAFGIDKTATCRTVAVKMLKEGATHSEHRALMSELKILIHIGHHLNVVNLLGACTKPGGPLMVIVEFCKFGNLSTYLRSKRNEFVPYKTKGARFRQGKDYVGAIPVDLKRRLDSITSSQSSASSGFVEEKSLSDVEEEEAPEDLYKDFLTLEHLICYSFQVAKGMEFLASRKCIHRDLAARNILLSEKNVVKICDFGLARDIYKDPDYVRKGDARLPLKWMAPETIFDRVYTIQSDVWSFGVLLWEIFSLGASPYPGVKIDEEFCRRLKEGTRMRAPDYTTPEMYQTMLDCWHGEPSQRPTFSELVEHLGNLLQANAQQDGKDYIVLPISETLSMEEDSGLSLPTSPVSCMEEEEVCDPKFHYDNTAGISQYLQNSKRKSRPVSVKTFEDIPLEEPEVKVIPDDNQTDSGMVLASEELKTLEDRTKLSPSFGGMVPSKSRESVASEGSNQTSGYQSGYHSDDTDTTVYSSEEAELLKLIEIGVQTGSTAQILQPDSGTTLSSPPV
Chain of Vascular endothelial growth factor receptor 1 (P17948 whole entry): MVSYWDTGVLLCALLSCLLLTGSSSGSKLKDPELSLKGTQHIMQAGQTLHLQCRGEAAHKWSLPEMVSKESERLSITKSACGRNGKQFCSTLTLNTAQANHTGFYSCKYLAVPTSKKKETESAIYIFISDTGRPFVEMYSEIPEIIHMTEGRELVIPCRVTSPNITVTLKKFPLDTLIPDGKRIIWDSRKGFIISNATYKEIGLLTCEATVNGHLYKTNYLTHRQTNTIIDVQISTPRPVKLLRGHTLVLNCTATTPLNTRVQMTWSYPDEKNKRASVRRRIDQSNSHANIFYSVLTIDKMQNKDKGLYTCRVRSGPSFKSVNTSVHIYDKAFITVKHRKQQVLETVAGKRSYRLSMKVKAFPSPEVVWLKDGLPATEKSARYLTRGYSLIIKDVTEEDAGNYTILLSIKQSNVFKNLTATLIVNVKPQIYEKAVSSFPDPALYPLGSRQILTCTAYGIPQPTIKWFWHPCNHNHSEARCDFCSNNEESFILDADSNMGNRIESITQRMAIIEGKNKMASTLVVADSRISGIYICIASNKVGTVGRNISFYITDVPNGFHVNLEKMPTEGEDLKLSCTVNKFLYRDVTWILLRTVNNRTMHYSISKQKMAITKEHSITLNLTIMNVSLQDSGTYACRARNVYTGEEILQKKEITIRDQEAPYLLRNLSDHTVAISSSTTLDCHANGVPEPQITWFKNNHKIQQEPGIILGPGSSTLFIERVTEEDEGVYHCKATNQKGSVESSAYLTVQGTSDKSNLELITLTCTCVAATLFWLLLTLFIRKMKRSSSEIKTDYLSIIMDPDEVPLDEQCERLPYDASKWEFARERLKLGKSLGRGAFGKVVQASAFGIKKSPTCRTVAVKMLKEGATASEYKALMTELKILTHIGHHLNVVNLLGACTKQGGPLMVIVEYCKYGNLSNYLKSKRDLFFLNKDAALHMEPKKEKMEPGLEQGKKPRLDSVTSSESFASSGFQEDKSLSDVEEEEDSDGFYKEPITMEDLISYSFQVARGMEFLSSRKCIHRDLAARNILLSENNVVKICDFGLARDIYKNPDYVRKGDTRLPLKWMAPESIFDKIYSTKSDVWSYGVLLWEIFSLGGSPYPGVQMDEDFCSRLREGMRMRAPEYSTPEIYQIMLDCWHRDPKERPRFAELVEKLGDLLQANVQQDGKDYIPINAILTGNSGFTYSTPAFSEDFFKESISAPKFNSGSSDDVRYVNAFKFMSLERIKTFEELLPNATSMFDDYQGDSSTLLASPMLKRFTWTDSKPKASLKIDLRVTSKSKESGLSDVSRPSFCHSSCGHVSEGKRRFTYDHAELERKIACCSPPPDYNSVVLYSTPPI

One may read the IC50 as the concentration needed to halve the response being measured. The low end stands for greater potency in that assay, the high end for weaker potency in that assay. `Nc1nc(Nc2cccc(C(F)(F)F)c2)c2cc(CCc3ccccc3)[nH]c2n1`: the IC50 in assay [1] is more than 200 µM; in assay [2] it was more than 200 µM; in assay [3], more than 200 µM; in assay [4] it was more than 500 µM.
In the case of `Nc1nc(Nc2ccc(F)c(C(F)(F)F)c2)c2cc(CCc3ccccc3)[nH]c2n1`, the IC50 is more than 200 µM in assay [1], 122 µM in assay [2], more than 200 µM in assay [3] and 90 µM in assay [4].
Turning to `Nc1nc(Nc2ccc(Cl)cc2F)c2cc(CCc3ccccc3)[nH]c2n1`, the IC50 was more than 200 µM in assay [1], 1.32 µM in assay [2], more than 200 µM in assay [3] and more than 500 µM in assay [4].
Consider `Nc1nc(Nc2cccc(Br)c2)c2cc(CCc3ccccc3Cl)[nH]c2n1`, for which the 50% inhibitory concentration (IC50) was 13.2 µM in assay [5]; 42.3 µM in assay [1]; 3.4 µM in assay [2]; 32.7 µM in assay [3]; 10.1 µM in assay [6]; more than 50 µM in assay [4].
For the compound `Nc1nc(Nc2ccc(Cl)cc2)c2cc(CCc3ccccc3)[nH]c2n1`, the IC50 in assay [5] is 1.6 µM; in assay [1] it was more than 200 µM; in assay [2] it was 3.18 µM; in assay [3], more than 200 µM; in assay [6] it was 3.3 µM; in assay [4] it was more than 500 µM.
As to `Nc1nc(Nc2cccc(Br)c2)c2cc(Cc3ccc4ccccc4c3)[nH]c2n1`, the IC50 in assay [4] was more than 50 µM.
Consider `Nc1nc(Nc2ccc3[nH]ccc3c2)c2cc(CCc3ccccc3)[nH]c2n1`, for which the IC50 is 24.9 µM in assay [1], more than 200 µM in assay [2], more than 200 µM in assay [3] and 77.4 µM in assay [4].
Turning to `Nc1nc(Nc2ccc(F)c(Cl)c2)c2cc(CCc3ccccc3)[nH]c2n1`, the IC50 is 6.8 µM in assay [5]; 132 µM in assay [1]; 22.8 µM in assay [2]; more than 200 µM in assay [3]; 5.9 µM in assay [6]; more than 500 µM in assay [4].
In the case of `Nc1nc(Nc2cccc(Br)c2)c2cc(Cc3ccccc3Cl)[nH]c2n1`, the values for the IC50 in assay [6] and in assay [4] were 1.7 µM and more than 50 µM, respectively.
With `Nc1nc(Nc2ccc(F)c(Br)c2)c2cc(CCc3ccccc3)[nH]c2n1`, the half-inhibitory concentration (IC50) in assay [5] is 3.4 µM; in assay [1], 198 µM; in assay [2] it was more than 200 µM; in assay [3], more than 200 µM; in assay [4], more than 500 µM.
As to `COc1ccc(CCc2cc3c(Nc4cccc(Br)c4)nc(N)nc3[nH]2)cc1`, the half-inhibitory concentration (IC50) in assay [5] is more than 50 µM; in assay [1], more than 50 µM; in assay [2] it was 2.2 µM; in assay [3] it was 31.8 µM; in assay [6] it was 21.1 µM; in assay [4], more than 50 µM.
For the compound `Nc1nc(Nc2cccc(Br)c2)c2cc(CCc3ccc4ccccc4c3)[nH]c2n1`, the IC50 in assay [5] is more than 50 µM; in assay [1], 16.8 µM; in assay [2], 4.7 µM; in assay [3], 7.8 µM; in assay [6] it was 18.9 µM; in assay [4], 13.7 µM.
For the compound `Nc1nc(Nc2cccc(Br)c2)c2cc(CCc3ccccc3)[nH]c2n1`, the IC50 in assay [1] is more than 50 µM; in assay [2], 0.3 µM; in assay [3], 45.1 µM; in assay [6], 19.5 µM; in assay [4] it was 11.8 µM.
In assay [6], `Nc1nc(Nc2cccc(Br)c2)c2cc(Cc3cccc4ccccc34)[nH]c2n1` gave an IC50 of 0.053 µM.
For the compound `Nc1nc(Nc2cccc(Br)c2)c2cc(CCc3cccc4ccccc34)[nH]c2n1`, the IC50 amounted to 8.2 µM in assay [5]; 4.8 µM in assay [2]; 11.2 µM in assay [3]; 15.2 µM in assay [6]; 11 µM in assay [4].
In assay [4], `Nc1nc(Nc2cccc(Br)c2)c2cc(Cc3ccccc3)[nH]c2n1` yielded an IC50 of more than 50 µM.
Take `C#Cc1cccc(Nc2nc(N)nc3[nH]c(CCc4ccccc4)cc23)c1`: the IC50 in assay [1] is more than 200 µM; in assay [2], more than 200 µM; in assay [3], more than 200 µM; in assay [4] it was 100 µM.
